Data as given in patent US12370208B2, “Adenosine derivative and pharmaceutical composition comprising the same” (Brii Biosciences, Inc., priority 2019, dated 2025).
Several values for one entry are separate records, joined by “and”; a condition that tells them apart may be missing. Equal entries are not always repeated. One block for each molecule: values may come before it.

Assays:
[1] = Plasma exposures following oral administration to beagle dogs
[2] = Plasma stability and conversion to EFdA in human plasma; assay type: in vitro ADME
Method: The pooled frozen plasma was thawed in a water bath at 37° C. prior to experiment. Plasma was centrifuged at 4000 rpm for 5 min and the clots were removed if any. The pH will be adjusted to 7.4±0.1 if required.
Preparation of test compounds and positive control (propantheline bromide): 1 mM intermediate solution was prepared by diluting 10 μL of the stock solution with 90 μL MeOH; 1 mM intermediate of positive control Propantheline was prepared by diluting 10 μL of the stock solution with 90 μL ultrapure water. 100 μM dosing solution was prepared by diluting 20 μL of the intermediate solution (1 mM) with 180 μL MeOH. 98 μL of blank plasma was spiked with 2 μL of dosing solution (100 μM) to achieve 2 μM of the final concentration in duplicate and samples were incubated at 37° C. in a water bath. At each time point (0, 10, 30, 60 and 120 min), 400 μL of stop solution (0.1% FA in MeOH containing 200 ng/mL tolbutamide and 200 ng/mL Labetalol) was added to precipitate protein and mixed thoroughly. Centrifuged sample plates at 4,000 rpm for 10 min. An aliquot of supernatant (100 μL) was transferred from each well to another plates.
Data analysis: The % remaining of test compound after incubation in plasma was calculated using following equation: % Remaining=100×(PAR at appointed incubation time/PAR at T0 time) where PAR is the peak area ratio of analyte versus internal standard (IS) (LC/MS/MS mobile phase condition: 0.1% Formic Acid in Water/0.1% Formic Acid in Acetonitrile. The appointed incubation time points are T0 (0 min), Tn (n=0, 10, 30, 60, 120 min). Liver S9 Stability

[3] = Liver S9 stability and conversion to EFdA in human liver S9; assay type: in vitro ADME; details: for Conversion to the target drug: liver S9 assay; for Stability in Human Liver S9 Half-life: human liver S9, 37° C.
Method: Intermediate solution: Dilute 5 μL of compounds or controls (7-ethoxycoumarin) from stock solution (10 mM) with 495 μL MeOH (Conc.: 100 μM, 1% DMSO, 99% MeOH). Stop solution: Cold ACN (including 100 ng/mL Tolbutamide and Labetalol as internal standard). Add 2 μL test compound or control working solution/well to all plates (T0, T5, T10, T20, T30, T60, NCF60) except matrix blank. Add 600 μL/well stop solution (cold in 4° C., including 100 ng/mL Tolbutamide/100 ng/mL Labetalol) to terminate the T0 plate, then put it on ice. Dispense 840 μL/well S9 solution to 96-well plate as reservoir according to plate map. Then add 100 μL/well to every plate by Apricot. Incubate S9 solution and compound at 37° C. for about 10 min except NCF60 and TO. After adding S9 solution and 98 μL PB buffer to NCF60, incubate at 37° C. without pre-warming, start timer 1. After 60 min, add 600 μL/well stop solution to terminate the reaction. After pre-warming, dispense 760 μL/well cofactor solution to 96-well plate as reservoir according to plate map. Then add 98 μL/well to every plate by Apricot to start reaction. Incubate at 37° C., start timer 2, Add 600 μL/well stop solution (cold in 4° C., including 100 ng/mL Tolbutamide and Labetalol) to terminate the reaction. Samples are centrifuged at 4000 rpm for 20 min. While centrifuging, load 8×new 96-well plate with 300 μL HPLC water, then transfer 100 μL supernatant, mix with water for LC/MS/MS, transferred to Bioanalytical Services for LC-MS/MS analysis. Use equation of first order kinetics to calculate t1/2 and CL: Equation of first order kinetics: […]

[4] = Prodrug formula 4-A PO 8.25 mg/kg, 12.0 hrs, individual animals 2001-2003
[5] = Prodrug formula 4-A PO 8.25 mg/kg, 24.0 hrs, individual animals 2001-2003

SMILES: C#C[C@]1(COC(=O)OCc2oc(=O)oc2C)O[C@@H](n2cnc3c(N)nc(F)nc32)C[C@@H]1O [Formula 4-A, ((2R,3S,5R)-5-(6-amino-2-fluoro-9H-purin-9-yl)-2-ethynyl-3-hydroxytetrahydrofuran-2-yl)methyl((5-methyl-2-oxo-1,3-dioxol-4-yl)methyl) carbonate]
AUC compared with a dose-equivalent EFdA ([1]; EFdA in dog plasma, oral): higher | Cmax compared with a dose-equivalent EFdA ([1]; EFdA in dog plasma, oral): higher | Prodrug formula 4-A Concentrations in Dog Plasma ([1]; Prodrug formula 4-A PO 8.25 mg/kg, 0.250 hrs, individual animals 2001-2003, 8.25 mg/kg): 1.13 ng/mL and 1.63 ng/mL and 1.09 ng/mL | Prodrug formula 4-A Concentrations in Dog Plasma, Mean ([1]; Prodrug formula 4-A PO 8.25 mg/kg, 0.250 hrs, mean of 3 dogs): 1.28 ng/mL | Prodrug formula 4-A Concentrations in Dog Plasma, Mean ([1]; Prodrug formula 4-A PO 8.25 mg/kg, 0.500 hrs, Mean column (one animal above BQL)): 1.68 ng/mL | Prodrug formula 4-A Concentrations in Dog Plasma ([1]; Prodrug formula 4-A PO 8.25 mg/kg, 0.500 hrs, individual animals 2001-2003, 8.25 mg/kg): BQL (2×) and 1.68 ng/mL | Prodrug formula 4-A Concentrations in Dog Plasma, Mean ([1]; Prodrug formula 4-A PO 8.25 mg/kg, 1.00 hrs, Mean column (one animal above BQL)): 1.43 ng/mL | Prodrug formula 4-A Concentrations in Dog Plasma ([1]; Prodrug formula 4-A PO 8.25 mg/kg, 1.00 hrs, individual animals 2001-2003, 8.25 mg/kg): BQL (2×) and 1.43 ng/mL | Prodrug formula 4-A Concentrations in Dog Plasma ([1]; Prodrug formula 4-A PO 8.25 mg/kg, 2.00 hrs, individual animals 2001-2003): BQL | Prodrug formula 4-A Concentrations in Dog Plasma ([1]; Prodrug formula 4-A PO 8.25 mg/kg, 4.00 hrs, individual animals 2001-2003): BQL | Prodrug formula 4-A Concentrations in Dog Plasma ([1]; Prodrug formula 4-A PO 8.25 mg/kg, 6.00 hrs, individual animals 2001-2003): BQL | Prodrug formula 4-A Concentrations in Dog Plasma ([1]; Prodrug formula 4-A PO 8.25 mg/kg, 8.00 hrs, individual animals 2001-2003): BQL | EFdA Concentrations in Dog Plasma [1, 4]: BQL | Prodrug formula 4-A Concentrations in Dog Plasma [1, 4]: BQL | EFdA Concentrations in Dog Plasma [1, 5]: BQL | Prodrug formula 4-A Concentrations in Dog Plasma [1, 5]: BQL | Prodrug detected in the systemic circulation ([1]; dogs, oral): minimal | Stability in Human Plasma Formation of EFdA [2]: Yes | Conversion to the target drug ([2]; human plasma assay): can be converted to the target drug efficiently | Stability in Human Liver S9 Formation of EFdA [3]: Yes | Conversion to the target drug [3]: can be converted to the target drug efficiently

SMILES: C#C[C@]1(CO)O[C@@H](n2cnc3c(NC(=O)OC(C)C)nc(F)nc32)C[C@@H]1O [Formula 3-A, isopropyl (9-((2R,4S,5R)-5-ethynyl-4-hydroxy-5-(hydroxymethyl)tetrahydrofuran-2-yl)-2-fluoro-9H-purin-6-yl)carbamate]
Stability in Human Plasma Formation of EFdA [2]: No | Stability in Human Liver S9 Formation of EFdA [3]: No | Stability in Human Liver S9 Half-life [3]: B (B: 50-200 minutes)

SMILES: C#C[C@]1(COC(=O)OCc2oc(=O)oc2C)O[C@@H](n2cnc3c(N)nc(F)nc32)C[C@@H]1OC(=O)OCc1oc(=O)oc1C [Formula 4-C, [(2R,3S,5R)-5-(6-amino-2-fluoro-purin-9-yl)-2-ethynyl-2-[(5-methyl-2-oxo-1,3-dioxol-4-yl)methoxycarbonyloxymethyl]tetrahydrofuran-3-yl] (5-methyl-2-oxo-1,3-dioxol-4-yl)methyl carbonate]
Conversion to the target drug [2]: can be converted to the target drug efficiently | Stability in Human Plasma Formation of EFdA [2]: Yes | Stability in Human Liver S9 Formation of EFdA [3]: Yes | Stability in Human Liver S9 Half-life [3]: C (C: <50 minutes) | Conversion to the target drug [3]: can be converted to the target drug efficiently

More lines, main results first:

EFdA Concentrations in Dog Plasma ([1]; EFdA PO 5 mg/kg, 6.00 hrs, individual animals 4001-4003): BQL | EFdA Concentrations in Dog Plasma ([1]; EFdA PO 5 mg/kg, 8.00 hrs, individual animals 4001-4003): BQL | EFdA Concentrations in Dog Plasma ([1]; EFdA PO 5 mg/kg, 12.0 hrs, individual animals 4001-4003): BQL | EFdA Concentrations in Dog Plasma ([1]; EFdA PO 5 mg/kg, 24.0 hrs, individual animals 4001-4003): BQL | EFdA Exposure in Plasma Cmax ([1]; oral EFdA 5 mg/kg, dogs): 392 ng/mL | EFdA Exposure in Plasma AUC ([1]; oral EFdA 5 mg/kg, dogs, AUC0-24 h): 792 ng·h/mL
SMILES: C#C[C@]1(CO)O[C@@H](n2cnc3c(N)nc(F)nc32)C[C@@H]1O [EFdA, (2R,3S,5R)-5-(6-amino-2-fluoro-9H-purin-9-yl)-2-ethynyl-2-(hydroxymethyl)tetrahydrofuran-3-ol, reference compound]

Stability in Human Plasma Formation of EFdA [2]: No | Stability in Human Liver S9 Formation of EFdA [3]: No
SMILES: C#C[C@]1(COC(=O)NCCN(C)Cc2oc(=O)oc2C)O[C@@H](n2cnc3c(N)nc(F)nc32)C[C@@H]1O [Formula 7-A, ((2R,3S,5R)-5-(6-amino-2-fluoro-9H-purin-9-yl)-2-ethynyl-3-hydroxytetrahydrofuran-2-yl)methyl (2-(methyl((5-methyl-2-oxo-1,3-dioxol-4-yl)methyl)amino)ethyl)carbamate]

Stability in Human Plasma Formation of EFdA [2]: No | Stability in Human Liver S9 Formation of EFdA [3]: No
SMILES: C#C[C@]1(COC(=O)NC)O[C@@H](n2cnc3c(N)nc(F)nc32)C[C@@H]1O [Formula 5-A, ((2R,3S,5R)-5-(6-amino-2-fluoro-9H-purin-9-yl)-2-ethynyl-3-hydroxytetrahydrofuran-2-yl)methyl methylcarbamate]

Stability in Human Plasma Formation of EFdA [2]: No | Stability in Human Liver S9 Formation of EFdA [3]: Yes
SMILES: C#C[C@]1(CO)O[C@@H](n2cnc3c(NCc4oc(=O)oc4C)nc(F)nc32)C[C@@H]1O [Formula 6-A, 4-(((9-((2R,4S,5R)-5-ethynyl-4-hydroxy-5-(hydroxymethyl)tetrahydrofuran-2-yl)-2-fluoro-9H-purin-6-yl)amino)methyl)-5-methyl-1,3-dioxol-2-one]
Conversion to the target drug [3]: can be converted to the target drug efficiently

Stability in Human Plasma Formation of EFdA [2]: No | Stability in Human Liver S9 Formation of EFdA [3]: No
SMILES: C#C[C@]1(COC(=O)NC(C)C)O[C@@H](n2cnc3c(N)nc(F)nc32)C[C@@H]1O [Formula 2-A, ((2R,3S,5R)-5-(6-amino-2-fluoro-9H-purin-9-yl)-2-ethynyl-3-hydroxytetrahydrofuran-2-yl)methyl isopropylcarbamate]
